Reference: patent publication US20130217760A1, “METHOD FOR ENHANCING THERAPEUTIC EFFECT OF ANTICANCER THERAPIES” (BOTAMEDI INC., priority 2012, published 2013)
Counter-ions that a name gives are not always drawn. Like-named read-outs stand apart in the source and are kept apart here.

Assays:
[1] = tested on: adriamycin-induced cardiomyopathy
Procedure: The composition of the present invention was examined for suppression effects against adriamycin-induced cardiomyopathy.
A total of 25 male mice (33±5 g, four-week-old) were divided into four groups: three test groups of seven, and one control group of four. Adriamycin (tradename: Doxorubicin Hydrochloride; Sigma-Aldrich, Co, LLC; St. Louis, Mo., USA) in distilled water was intraperitoneally injected at a dose of 1.25 mg/kg once a week for six weeks in the adriamycin group. The other two experimental groups, low-dose and high-dose group, were orally administered with composition 4 at a dose of 32 mg/kg and 64 mg/kg, respectively, everyday for one week, and then intraperitoneally injected with adriamycin in distilled water at a dose of 1.25 mg/kg once a week for six weeks. The control group of 4 mice was injected once a week for six weeks with physiological saline. During the experiment, the mice were given access to food and water ad libitum.
The mice were generally anesthetized before and after the six-week experiment, and subjected to two-dimensional echocardiography using a 15-MHz transducer to measure left ventricular end-diastolic dimension (LVEDD) and left ventricular end-systolic dimension (LVESD), left ventricular end-diastolic posterior wall thickness (PW), and left ventricular end-systolic posterior wall thickness (PW). From these measurements, relative wall thickness (RWT), fraction shortening (FS), and left ventricular ejection fraction (LVEF) were calculated. The echocardiographic data are expressed as mean value±SD of five or higher independent measurements.

[2] = tested on: Ovarian carcinoma cells (SKOV3); test: Apoptosis by PI staining / FACS, co-treatment with Cisplatin; format: cell-based; conditions: Individual, 48 hrs
Procedure: Apoptotic effects were assessed using a PI staining method. Propidium iodide (PI) is a fluorescent molecule that can bind to DNA of dead cells to evaluate cell cycle and cell viability.
Ovarian carcinoma cells (SKOV3) were incubated at 37° C. for 24 hrs in minimum essential medium [MEM] supplemented with 10% FBS, 100 units/ml antibiotic antimycotic, and 2.2 g/L sodium bicarbonate in 96-well plates. The ovarian carcinoma cell line was seeded at a density of 1×10^4 cells/well into 96-well plates and allowed to adhere to the bottom during incubation for 24 hrs. […] Afterwards, the cells were washed with PBS, and detached with trypsin-EDTA, followed by centrifugation at 1,000 rpm for 10 min. The cells were fixed with 70% ethanol at 4° C. for 24 hrs. After removal of the ethanol, the cells were washed many times with PBS, suspended in PBS containing RNaseA, and reacted with a PI reagent for 10 min at room temperature in a dark condition.

[3] = tested on: A2780 ovarian carcinoma cell line; test: Inhibition of cancer cell proliferation, MTT assay, A2780; format: cell-based; conditions: A2780, 24 hrs incubation
Procedure: (§1) Ovarian […] carcinoma cell lines (SKOV3, A2780) were incubated in minimum essential medium [MEM] supplemented with 10% FBS, 100 units/ml antibiotic antimycotic, and 2.2 g/L sodium bicarbonate at 37° C. for 24 hrs in 96-well plates. The ovarian carcinoma cell lines were seeded at a density of 1×10^4 cells/well into 96-well plates and allowed to adhere to the bottom during incubation for 24 hrs. […] The cells in each well were treated with […] of an MTT reagent (1 mg/ml) for 4 hrs in a dark condition. After the medium was aspirated, the MTT fromazan thus formed was dissolved in […] of DMSO, and absorbance was measured at 540 nm using spectrophotometer.

[4] = tested on: ovarian carcinoma cell line SKOV3 tumors; test: SKOV3 ovarian carcinoma xenograft, tumor volume and weight; format: in vivo, Balb/c nu/nu mice
Procedure: The ovarian carcinoma cell line SKOV3 was detached from a culture dish using trypsin-EDTA, and diluted to a density of […] cells/150 in an RPMI medium supplemented with 10% FBS, followed by subcutaneous injection into the right flank of Balb/c nu/nu mice using a syringe. […] The control group was treated with PBS. During the experimental period, the tumor size, body weight and dietary intake of mice in each group was recorded three times per week.
After 4 weeks, the animals were sacrificed and blood was taken from the animals. Tumors were e.xcised from the animals and measured for size and weight.

[5] = tested on: SKOV3 ovarian carcinoma cell line; test: Inhibition of cancer cell proliferation, MTT assay, SKOV3; format: cell-based; conditions: SKOV3, 24 hrs incubation
Procedure: as §1

[6] = Dietary intake (anorexia) in SKOV3 tumor-bearing mice; format: in vivo, Balb/c nu/nu mice; conditions: for Diet Intake: Cisplatin group (cisplatin 3 mg/kg i.p.)
[7] = Adriamycin Group, Week 0 (Baseline)

Compound: COc1cccc2c1C(=O)c1c(O)c3c(c(O)c1C2=O)C[C@@](O)(C(=O)CO)C[C@@H]3O[C@H]1C[C@H](N)[C@H](O)[C@H](C)O1 [Adriamycin, Doxorubicin Hydrochloride]
- LVEDD [1, 7]: 5.7 ± 0.2 mm
- LVESD [1, 7]: 2.4 ± 0.3 mm
- PW [1, 7]: 1.6 ± 0.2 mm
- FS ([1]; Adriamycin Group, Week 6): 44.2 ± 3.2%
- LVEF ([1]; Adriamycin Group, Week 6): 70.3 ± 0.3%
- LVESD ([1]; Adriamycin Group, Week 6): 3.8 ± 0.3 mm
- PW ([1]; Adriamycin Group, Week 6): 1.4 ± 0.3 mm
- FS Δ(6 − 0) ([1]; Adriamycin Group, Δ(6 − 0)): 14.4 ± 1.5%
- LVEDD Δ(6 − 0) ([1]; Adriamycin Group, Δ(6 − 0)): 1.1 ± 0.1 mm
- LVEF Δ(6 − 0) ([1]; Adriamycin Group, Δ(6 − 0)): 15.2 ± 3.0%
- LVESD Δ(6 − 0) ([1]; Adriamycin Group, Δ(6 − 0)): 1.4 ± 0.0 mm
- PW Δ(6 − 0) ([1]; Adriamycin Group, Δ(6 − 0)): 0.2 ± 0.1 mm
- cardiomyopathy after 6 weeks ([1]; echocardiography after 6 weeks of study): cardiomyopathy with significant decrease in left ventricular posterior wall thickness (PW) and in fractional shortening (FS)

Compound: N.N.[Cl][Pt][Cl] [Cisplatin, cis-Diammineplatinum (II) dichloride]
- Apoptosis (%) ([2]; Cisplatin 3 μM): 3.0%
- Apoptosis (%) ([2]; Cisplatin 5 μM): 3.5%
- IC50 A2780 [3]: 6.01 µg/mL
- tumor size compared to control ([4]; 4 weeks administration): slightly reduced
- Tumor Weight after 4 Weeks ([4]; Cisplatin alone (3 mg/kg i.p.)): 1.7 gram
- Tumor Volume ([4]; Cisplatin alone (3 mg/kg i.p.), Week 1): 100 mm3
- Tumor Volume ([4]; Cisplatin alone (3 mg/kg i.p.), Week 2): 134 mm3
- Tumor Volume ([4]; Cisplatin alone (3 mg/kg i.p.), Week 3): 144 mm3
- Tumor Volume ([4]; Cisplatin alone (3 mg/kg i.p.), Week 4): 162 mm3
- IC50 SKOV3 [5]: 12.3 µg/mL
- Diet Intake ([6]; Week 0): 4.8 gram
- Diet Intake ([6]; Week 1): 4.6 gram
- Diet Intake ([6]; Week 2): 4.0 gram
- Diet Intake ([6]; Week 3): 3.7 gram
- Diet Intake ([6]; Week 4): 4.1 gram
- dietary intake compared to control group ([6]; during the experimental periods): decrease in dietary intake
